Earlier results in patent US9456985B2, “Sustained-released product comprising a combination of a non-opioid amine and a non-steroidal, anti-inflammatory drug” (Upsher-Smith Laboratories, Inc., priority 2009, dated 2016).
Counter-ions that a name gives are not always drawn.

Details: no test described

solubility (descriptive)	Compound
freely soluble	NC12CC3CC(CC(C3)C1)C2 [Amantadine hydrochloride]
soluble in water	CC12CC3CC(C)(C1)CC(N)(C3)C2 [memantine hydrochloride, Memantine hydrochloride]
